Assay [1] has as its target T1, Recombinant KRAS G12C mutant protein (amino acids 1-169, SEQ ID NO: 1) (Homo sapiens, UniProt P01116, G12C).
T1 construct: His6 (N); TEV protease site (ENLYFQG; named from own knowledge) (N); made in house; host or cells: E. coli
In words: Test Example 1: inhibitory activity on KRAS G12C nucleotide (GDP-GTP) exchange reaction in vitro. The format is biochemical. The conditions noted are these: BODIPY FL GDP-bound KRAS G12C incubated with compound at 25° C. for 1 hour, then SOS1 and GMPPNP, read-out: GNE IC50. The method, then: Test Example 1: Evaluation of inhibitory activity of compounds on KRAS G12C nucleotide (GDP-GTP) exchange reaction in vitro
Recombinant KRAS G12C mutant protein (amino acids 1-169, SEQ ID NO: 1) and cleaved recombinant SOS1 (amino acids 564-1049, SEQ ID NO:2) proteins were expressed in E. coli and purified by affinity chromatography.
To prepare BODIPY FL GDP-bound KRAS G12C protein, 50 μM KRAS G12C protein was incubated with 0.5 mM BODIPY FL GDP in a loading buffer (20 mM Tris-HCl (pH 7.5), 50 mM NaCl, 1 mM DTT and 2.5 mM EDTA) for 1 hour on ice. After the incubation, MgCl2 was added to a final concentration of 10 mM, followed by incubation at room temperature for 30 minutes. The mixture was allowed to pass through a NAP-5 column to remove free nucleotides and purified BODIPY FL GDP-bound KRAS G12C protein was used for compound evaluation.
For the measurement of the inhibitory activity of compounds on GDP-GTP exchange rate of recombinant KRAS G12C, BODIPY FL GDP-bound KRAS G12C protein was incubated with various concentrations of compound in a reaction buffer (20 mM Tris-HCl (pH 7.5), 100 mM NaCl, 1 mM MgCl2, 2 mM DTT, 0.1% Tween 20) at 25° C. for 1 hour. After the incubation, recombinant SOS1 and Guanosine-5′-[(β,γ)-imido]triphosphate, Tetralithium salt (GMPPNP) (Jena Bioscience GmbH) were added and incubated at room temperature for 30 minutes to proceed SOS1-dependent GDP-GTP exchange reaction on KRAS G12C. Replacement of BODIPY FL GDP by GMPPNP was measured by calculating the ratio of fluorescence intensities of BODIPY FL before and after the exchange reaction. Inhibition % was calculated by setting the fluorescence ratio from the reaction without test compound (DMSO control) and the fluorescence ratio from the reaction without SOS1 and GMPPNP as 0% and 100% inhibition, respectively. IC50 values were calculated from dose titration curve using curve fitting by XLfit software (IDBS).

In assay [2] the target is T2, interaction between KRAS G12C and cRAF-RBD (Homo sapiens, UniProt P01116, G12C).
T2 construct: TEV protease site (ENLYFQG); made in house; host or cells: E. coli
Description: Test Example 2: inhibitory activity on interaction between KRAS G12C and cRAF (Alpha technology). The conditions noted are these: GMPPNP-bound KRAS G12C incubated with compound at 25° C. for 1 hour, then cRAF-RBD. The format is binding. The procedure: Test Example 2: Evaluation of Inhibitory Activity of Compounds on Interaction Between KRAS G12C and cRAF (In Vitro)
Interaction between recombinant KRAS G12C mutant protein (SEQ ID NO: 1) and cRAF RAS-binding domain (cRAF-RBD, amino acids 50-132, Jena Biosciences GmbH) was measured using Alpha technology (PerkinElmer Inc.).
Recombinant KRAS G12C protein with an N-terminal His-tag was expressed in E. coli and purified by affinity chromatography. To prepare GTP-bound form and GDP-bound form of KRAS G12C protein, 50 μM KRAS G12C protein was incubated with 1 mM GMPPNP (Jena Bioscience GmbH) and 1 mM GDP, respectively, in a loading buffer (20 mM Tris-HCl (pH 7.5), 50 mM NaCl, 1 mM DTT and 2.5 mM EDTA) for 1 hour on ice. After the incubation, MgCl2 was added to a final concentration of 10 mM, followed by incubation at room temperature for 30 minutes. The mixture was allowed to pass through a NAP-5 column to remove free nucleotides and purified, and the resultant nucleotide-bound KRAS G12C protein was used for compound evaluation.
For the measurement of the inhibitory activity of compounds on interaction between KRAS G12C and cRAF-RBD, GMPPNP-bound KRAS G12C protein was incubated with various concentrations of compound in a reaction buffer (20 mM Tris-HCl (pH 7.5), 100 mM NaCl, 1 mM MgCl2, 1 mM TCEP, 0.1% Tween 20) at 25° C. for 1 hour. After the incubation, recombinant cRAF-RBD and Alpha detection reagents were added and incubated at room temperature for 1.5 hours for binding. Interaction of KRAS G12C and cRAF-RBD was monitored by measuring Alpha signal. Inhibition % was calculated using the signal from the reaction without test compound (DMSO control) as 0% inhibition and the signal from the reaction using GDP-bound KRAS G12C in place of GMPPNP-bound KRAS G12C as 100% inhibition. IC50 values were calculated from dose titration curve using curve fitting by XLfit software (IDBS).

In assay [3] the test system is MIA PaCa-2 cells. In words: Test Example 3: growth inhibition activity on KRAS-G12C mutant cell line (MIA PaCa-2). In kind it is cell-based. As to conditions: Homo sapiens, 72 h, MIA PaCa-2, 3-day culture, CellTiter-Glo 3D, read-out: CTX MiaPaCa IC50. The procedure:
Test Example 3: Assay of Growth Inhibition Activity on KRAS-G12C Mutant Cell Line (MIA PaCa-2) (In Vitro)
MIA PaCa-2 cells (provided by Sumitomo Dainippon Pharma Co., Ltd.), which are a KRAS-G12C mutant human pancreas cancer cell line, were suspended in a 10% fetal bovine serum-containing RPMI1640 medium (manufactured by Fujifilm Wako Pure Chemical Corporation.). The cell suspension was seeded into each well of a 384-well U bottom microplate and cultured in an incubator containing 5% CO2 gas at 37° C. for 1 day. The compounds obtained in the Examples section were used as test compounds and were dissolved in DMSO, respectively, and each test compound was diluted with DMSO to give a concentration 500 times the final concentration. The resultant solution of the test compound in DMSO was diluted with the medium used for suspending cells and added to each well of the cell-culture plate to give a DMSO final concentration of 0.2%, followed by culture in an incubator containing 5% CO2 gas at 37° C. for another 3 days. The cell count after 3-day culture in the presence of the test compound was measured using CellTiter-Glo 3D Reagent (manufactured by Promega Corporation). To all cells were added with CellTiter-Glo 3D Reagent and mixed for 10 minutes. 30 minutes after mixing, luminescence was measured by a plate reader. The growth inhibition rate was calculated from the following equation, and the concentration of the test compound at which 50% inhibition was achieved (IC50 (nM)) was determined.
[formula] • T: the emission intensity in a well into which a test compound was added. • C: the emission intensity in a well into which a test compound was not added.

By IC50 is commonly meant the concentration that inhibits the measured activity by half.

T1 sequence (P01116 with tags, fused parts or gaps isoform P01116-2 G12C): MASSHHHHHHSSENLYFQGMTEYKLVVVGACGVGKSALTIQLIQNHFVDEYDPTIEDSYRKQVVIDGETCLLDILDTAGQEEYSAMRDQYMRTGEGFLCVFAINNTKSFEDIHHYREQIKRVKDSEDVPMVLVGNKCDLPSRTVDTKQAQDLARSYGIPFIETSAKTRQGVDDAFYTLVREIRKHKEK
T2 sequence (P01116 with tags, fused parts or gaps isoform P01116-2 G12C): as above

Turning to `COC1CCN(C/C=C/C(=O)N2CCN(c3nc(OC[C@@H]4CCCN4C)nc4c3CO[C@H](c3cc(O)cc5cccc(Br)c35)C4)C[C@@H]2CC#N)CC1` [Example 10, 2-((S)-4-((S)-7-(8-bromo-3-hydroxynaphthalen-1-yl)-2-(((S)-1-methylpyrrolidin-2-yl)methoxy)-7,8-dihydro-5H-pyrano[4,3-d]pyrimidin-4-yl)-1-((E)-4-(4-methoxy-piperidin-1-yl)but-2-enoyl)-piperazin-2-yl)acetonitrile], the IC50 in assay [1] turned out to be 0.00073 µM; in assay [2] it was 0.107 µM; in assay [3], 0.0101 µM.
Regarding `CO[C@H]1CC[C@H](NC/C=C/C(=O)N2CCN(c3nc(OC[C@@H]4CCCN4C)nc4c3CO[C@H](c3cc(O)cc5cccc(Br)c35)C4)C[C@@H]2CC#N)CC1` [Example 11, 2-((S)-4-((S)-7-(8-bromo-3-hydroxynaphthalen-1-yl)-2-(((S)-1-methylpyrrolidin-2-yl)methoxy)-7,8-dihydro-5H-pyrano[4,3-d]pyrimidin-4-yl)-1-((E)-4-(((1r,4S)-4-methoxycyclohexyl)amino)-but-2-enoyl)piperazin-2-yl)-acetonitrile], the half-maximal inhibitory concentration (IC50) in assay [1] was determined as 0.00081 µM; in assay [2], 0.182 µM; in assay [3], 0.0217 µM.
As for `C#Cc1cccc2cccc([C@@H]3Cc4nc(OCC5(CN6CCOCC6)CC5)nc(N5CCN(C(=O)/C=C/CN6CCC(OC)CC6)[C@@H](CC#N)C5)c4CO3)c12` [Example 12, 2-((S)-4-((S)-7-(8-ethynyl-naphthalen-1-yl)-2-((1-(morpholinomethyl)cyclo-propyl)methoxy)-7,8-dihydro-5H-pyrano[4,3-d]pyrimidin-4-yl)-1-((E)-4-(4-methoxypiperidin-1-yl)-but-2-enoyl)piperazin-2-yl)-acetonitrile], the IC50 in assay [1] came out at 0.0067 µM; in assay [2], 0.309 µM; in assay [3] it was 0.17 µM.
With `C#Cc1cccc2cc(O)cc([C@@H]3Cc4nc(OCC5(CN(C)C)CC5)nc(N5CCN(C(=O)/C=C/CN6CCC(OC)CC6)[C@@H](CC#N)C5)c4CO3)c12` [Example 13, 2-((S)-4-((S)-2-((1-((dimeth-ylamino)methyl)cycloprop-yl)methoxy)-7-(8-ethynyl-3-hydroxynaphthalen-1-yl)-7,8-dihydro-5H-pyrano[4,3-d]pyrimidin-4-yl)-1-((E)-4-(4-methoxypiperidin-1-yl)-but-2-enoyl)piperazin-2-yl)-acetonitrile], the figures for the IC50 in assay [1], in assay [2] and in assay [3] were 0.00091 µM, 0.0513 µM and 0.00621 µM, respectively.
As to `C#Cc1cccc2cc(O)cc([C@@H]3Cc4nc(OC[C@@H]5CCCN5C)nc(N5C[C@H](CC#N)N(C(=O)/C=C/CN6CCC(OC)CC6)C[C@H]5C)c4CO3)c12` [Example 14, 2-((2S,5R)-4-((S)-7-(8-ethynyl-3-hydroxynaph-thalen-1-yl)-2-(((S)-1-meth-ylpyrrolidin-2-yl)methoxy)-7,8-dihydro-5H-pyrano[4,3-d]pyrimidin-4-yl)-1-((E)-4-(4-methoxypiperidin-1-yl)-but-2-enoyl)-5-methylpiper-azin-2-yl)acetonitrile], the IC50 in assay [1] turned out to be 0.00082 µM; in assay [2], 0.531 µM; in assay [3], 0.00788 µM.
As to `C#Cc1cccc2cc(O)cc([C@@H]3Cc4nc(OC[C@@H]5CCCN5C)nc(N5C[C@H](CC#N)N(C(=O)/C=C/CN6CCC(OC)CC6)C[C@@H]5C)c4CO3)c12` [Example 15, 2-((2S,5S)-4-((S)-7-(8-ethynyl-3-hydroxynaph-thalen-1-yl)-2-(((S)-1-meth-ylpyrrolidin-2-yl)methoxy)-7,8-dihydro-5H-pyrano[4,3-d]pyrimidin-4-yl)-1-((E)-4-(4-methoxypiperidin-1-yl)-but-2-enoyl)-5-methyl-piperazin-2-yl)acetonitrile], the results for the IC50 in assay [1], in assay [2] and in assay [3] were 0.103 µM, over 6.67 µM and 1.92 µM, respectively.
The matching figures for `C#Cc1cccc2cc(O)cc(C3Cc4nc(OC5CN(S(C)(=O)=O)C5)nc(N5CCN(C(=O)/C=C/CN6CCC(OC)CC6)[C@@H](CC#N)C5)c4CO3)c12` (stereo partly drawn) [Example 16, 2-((2S)-4-(7-(8-ethynyl-3-hydroxynaphthalen-1-yl)-2-((1-(methylsulfonyl)azeti-din-3-yl)oxy)-7,8-dihydro-5H-pyrano[4,3-d]pyrimidin-4-yl)-1-((E)-4-(4-methoxy-piperidin-1-yl)but-2-enoyl)-piperazin-2-yl)acetonitrile]: 0.338 µM, over 6.67 µM and over 10 µM.
The corresponding values for `C#Cc1cccc2cc(O)cc([C@@H]3Cc4nc(OCC5(COC)CC5)nc(N5CCN(C(=O)/C=C/CN6CCC(OC)CC6)[C@@H](CC#N)C5)c4CO3)c12` [Example 17, 2-((S)-4-((S)-7-(8-ethynyl-3-hydroxynaphthalen-1-yl)-2-((1-(methoxymethyl)-cyclopropyl)methoxy)-7,8-dihydro-5H-pyrano[4,3-d]-pyrimidin-4-yl)-1-((E)-4-(4-methoxypiperidin-1-yl)but-2-enoyl)piperazin-2-yl)-acetonitrile] are 0.255 µM, over 6.67 µM and 0.543 µM.
The matching figures for `C#Cc1cccc2cc(O)cc([C@@H]3Cc4nc(OCC5(C(=O)N(C)C)CC5)nc(N5CCN(C(=O)/C=C/CN6CCC(OC)CC6)[C@@H](CC#N)C5)c4CO3)c12` [Example 18, 1-((((S)-4-((S)-3-(cyano-methyl)-4-((E)-4-(4-meth-oxypiperidin-1-yl)but-2-enoyl)piperazin-1-yl)-7-(8-ethynyl-3-hydroxynaph-thalen-1-yl)-7,8-dihydro-5H-pyrano[4,3-d]pyrimidin-2-yl)oxy)methyl)-N,N-dimethylcyclopropane-1-carboxamide]: 0.0587 µM, over 6.67 µM and 4.46 µM.

Source of the values: patent US20240417408A1, “SMALL MOLECULE INHIBITORS OF KRAS G12C MUTANT” (MERCK SHARP & DOHME CORP., priority 2021, published 2024).
